# Laboratory results taken from US20070087029A1, “Localized delivery to the lymphatic system” (priority 2005, published 2007).
# Assays:
# [1] = Chronic delivery: continuous infusion of dye(s) by Alzet miniosmotic pump for fourteen days, drainage to lymph nodes (photographs, OPD substrate development, histology); assay type: in vivo, rat; settings: 14 days, open ended catheter, tip became occluded
# Excerpt: (§1) Animals. Male Lewis Inbred rats, six to eight weeks of age, were obtained from Charles River Laboratories and were acclimatized for five days before use. Animals were anesthetized with sodium pentobarbital before implants and dye injections.
# (§2) Dyes. Isosulfan blue, india ink, and goat anti rabbit horse radish peroxidase (HRP) were used.
# Chronic delivery. Alzet® miniosmotic pumps with a delivery rate of 0.25 or 0.5 microliter/hour (μl/hr) were used to continuously infuse dye(s) for fourteen days. The animals were sacrificed and a gross visual examination of the internal organs was performed to identify dye drainage into internal organs. Lymph nodes were collected, photographed, and analyzed as described in Table 1, below.
# [2] = Acute delivery: injection of tracking dye subcutaneously and above the IP wall, dye diffusion and gross visual examination of internal organs; assay type: in vivo, rat
# Protocol: as §1, §2
# Acute delivery. 40 microliters (μl) of isosulfan blue was injected subcutaneously and above the IP wall. The location of the injection was varied to detect the site which would drain into the para-aortic lymph nodes. Dye diffusion was monitored at five minutes and thirty minutes. The animals were then sacrificed and a gross visual examination of the internal organs was performed to identify dye drainage into internal organs.
compound,measurement,setting,value
"CCN(CC)c1ccc(C(=C2C=CC(=[N+](CC)CC)C=C2)c2cc(S(=O)(=O)[O-])ccc2S(=O)(=O)[O-])cc1.[Na+] [isosulfan blue, Isosulfan blue]",dye in lymph nodes after chronic delivery,[1],not observed
same,dye diffusion after subcutaneous injection,"[2]; 40 μl, subcutaneous injection, 30 minutes",Minimal diffusion
same,staining of internal organs after subcutaneous injection,"[2]; injection site 1 cm above the hip joint, covered inguinal and popliteal beds",no internal organs being stained
same,dye diffusion after injection into the peritoneal wall,"[2]; peritoneal wall, one centimeter above the hip joint",minimal diffusion
same,staining of internal organs after peritoneal wall injection,"[2]; peritoneal wall, one centimeter above the hip joint, covered inguinal and popliteal beds",no internal organs being stained
